Assays:
Test in all cases: relative viability (nuclei count vs DMSO), 5 days (fraction); higher = more cells survive
[1] = compound: N#CC[C@H](C1CCCC1)n1cc(-c2ncnc3[nH]ccc23)cn1 [Ruxolitinib] + CC(=O)c1c(C)c2cnc(Nc3ccc(N4CCNCC4)cn3)nc2n(C2CCCC2)c1=O [Palbociclib] (partner 0.5 µM)
Method in brief: (§1)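 The day after seeding in 1536-well plates, lung cancer cell lines were treated by pin tool with a single drug, or with a fixed anchor-drug dose together with five library-drug doses (not always all listed) in √10 steps. After 5 days, a combined fix-and-stain solution (final 0.05% Triton X-100, 1% formaldehyde, 1 ug/ml Hoechst) was added. Nuclei counted on 4× images gave relative viability as treated counts over vehicle counts, reported as the median of duplicate plates.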

VE-821 + Pictilisib = compound: CS(=O)(=O)c1ccc(-c2cnc(N)c(C(=O)Nc3ccccc3)n2)cc1 [VE-821] + CS(=O)(=O)N1CCN(Cc2cc3nc(-c4cccc5[nH]ncc45)nc(N4CCOCC4)c3s2)CC1 [Pictilisib] (partner 1 µM)
Method in brief: as §1

Ruxolitinib + Trametinib = compound: N#CC[C@H](C1CCCC1)n1cc(-c2ncnc3[nH]ccc23)cn1 [Ruxolitinib] + CC(=O)Nc1cccc(-n2c(=O)n(C3CC3)c(=O)c3c(Nc4ccc(I)cc4F)n(C)c(=O)c(C)c32)c1 [Trametinib] (partner 0.02 µM)
Method in brief: as §1

Ruxolitinib + AZD7762 = compound: N#CC[C@H](C1CCCC1)n1cc(-c2ncnc3[nH]ccc23)cn1 [Ruxolitinib] + NC(=O)Nc1cc(-c2cccc(F)c2)sc1C(=O)N[C@H]1CCCNC1 [AZD7762] (partner 0.2 µM)
Method in brief: as §1

Cell Line | relative viability ([1]; first compound 0.08 µM) | relative viability ([1]; first compound 0.253 µM) | relative viability ([1]; first compound 0.8 µM) | relative viability ([1]; first compound 2.53 µM) | relative viability ([1]; first compound 8 µM) | relative viability (VE-821 + Pictilisib; first compound 0.08 µM) | relative viability (VE-821 + Pictilisib; first compound 0.253 µM) | relative viability (VE-821 + Pictilisib; first compound 0.8 µM) | relative viability (VE-821 + Pictilisib; first compound 2.53 µM) | relative viability (VE-821 + Pictilisib; first compound 8 µM) | relative viability (Ruxolitinib + Trametinib; first compound 0.08 µM) | relative viability (Ruxolitinib + Trametinib; first compound 0.253 µM) | relative viability (Ruxolitinib + Trametinib; first compound 0.8 µM) | relative viability (Ruxolitinib + Trametinib; first compound 2.53 µM) | relative viability (Ruxolitinib + Trametinib; first compound 8 µM) | relative viability (Ruxolitinib + AZD7762; first compound 0.08 µM) | relative viability (Ruxolitinib + AZD7762; first compound 0.253 µM) | relative viability (Ruxolitinib + AZD7762; first compound 0.8 µM) | relative viability (Ruxolitinib + AZD7762; first compound 2.53 µM) | relative viability (Ruxolitinib + AZD7762; first compound 8 µM)
LCLC-103H | 0.495 | 0.467 | 0.468 | 0.426 | 0.394 | 0.572 | 0.51 | 0.663 | 0.75 | 0.494 | 0.728 | 0.707 | 0.731 | 0.595 | 0.639 | 0.829 | 0.783 | 0.798 | 0.836 | 0.614
LK-2 | 0.863 | 0.696 | 0.787 | 0.701 | 0.686 | 0.709 | 0.59 | 0.601 | 0.595 | 0.606 | 0.903 | 0.841 | 1.06 | 0.625 | 0.869 | 0.4 | 0.489 | 0.815 | 0.481 | 0.648
LOU-NH91 | 0.61 | 0.526 | 0.52 | 0.532 | 0.53 | 0.527 | 0.506 | 0.496 | 0.524 | 0.525 | 0.731 | 0.702 | 0.77 | 0.725 | 0.743 | 0.757 | 0.664 | 0.797 | 0.74 | 0.73
LU99A | 0.443 | 0.387 | 0.411 | 0.369 | 0.332 | 0.362 | 0.311 | 0.29 | 0.319 | 0.253 | 0.5 | 0.543 | 0.594 | 0.232 | 0.428 | 0.336 | 0.402 | 0.394 | 0.406 | 0.477
LXF-289 | 0.539 | 0.598 | 0.626 | 0.599 | 0.565 | 0.969 | 0.754 | 0.796 | 0.869 | 0.808 | 0.598 | 0.677 | 0.706 | 0.514 | 0.668 | 1.06 | 1.15 | 1.11 | 1.04 | 1
NCI-H23 | 0.538 | 0.485 | 0.604 | 0.426 | 0.34 | 0.554 | 0.458 | 0.506 | 0.469 | 0.277 | 0.371 | 0.354 | 0.436 | 0.241 | 0.35 | 0.456 | 0.303 | 0.279 | 0.206 | 0.277
NCI-H322M | 0.503 | 0.488 | 0.536 | 0.645 | 0.563 | 0.549 | – | 0.49 | 0.608 | 0.422 | 0.523 | 0.628 | 0.514 | 0.609 | 0.893 | 0.524 | 0.508 | 0.517 | 0.685 | 0.776
NCI-H358 | 0.167 | 0.125 | 0.16 | 0.14 | 0.127 | 0.383 | 0.273 | 0.408 | 0.359 | 0.38 | 0.144 | 0.12 | 0.138 | 0.0972 | 0.148 | 0.5 | 0.653 | 0.504 | 0.404 | 0.445
NCI-H441 | 0.218 | 0.206 | 0.302 | 0.241 | 0.309 | 0.56 | 0.527 | 0.537 | 0.519 | 0.352 | 0.478 | 0.373 | 0.572 | 0.415 | 0.513 | 1.29 | 1.09 | 1.22 | 1.16 | 1.05
NCI-H460 | 0.173 | 0.159 | 0.165 | 0.0961 | 0.155 | 0.416 | 0.355 | 0.288 | 0.488 | 0.325 | 0.195 | 0.161 | 0.151 | 0.0402 | 0.134 | – | 0.626 | 0.696 | 0.656 | 0.676
NCI-H647 | 0.523 | 0.443 | 0.44 | 0.344 | 0.346 | 0.472 | 0.391 | – | 0.428 | 0.263 | 0.607 | 0.437 | 0.523 | 0.182 | 0.48 | 0.398 | 0.499 | 0.421 | 0.439 | 0.366
NCI-H650 | 0.325 | 0.339 | 0.347 | 0.317 | 0.321 | 0.882 | 0.927 | 0.731 | 0.985 | 0.88 | 0.972 | 1.05 | 0.935 | 0.681 | 0.962 | 0.951 | 1.06 | 1.01 | 0.993 | 0.707
NCI-H727 | 0.539 | 0.676 | 0.586 | 0.611 | 0.713 | 0.418 | 0.314 | 0.232 | 0.458 | 0.227 | 0.406 | 0.407 | 0.413 | 0.416 | 0.453 | 0.701 | 0.461 | 0.587 | 0.8 | 0.979
NCI-H838 | 0.254 | 0.223 | 0.227 | 0.164 | 0.159 | 0.436 | 0.359 | 0.496 | 0.561 | 0.557 | 0.554 | 0.44 | 0.477 | 0.217 | 0.185 | 0.925 | 0.874 | 0.87 | 0.776 | 0.721
NCI-H1355 | 0.416 | 0.371 | 0.429 | 0.402 | 0.368 | 0.431 | 0.458 | 0.411 | 0.476 | 0.32 | 0.372 | 0.372 | 0.395 | 0.347 | 0.386 | 0.729 | 0.735 | 0.878 | 0.604 | 0.668

Source: the supplement of paper PMC10307832
